# Measured values as given in US20230139171A1 (SITA Information Networking Computing UK Limited, priority 2019, published 2023).
# pIC50: −log10 of the molar value.
# Experiments:
# Type in all cases: cell-based
# human TLR9 = target: T1, human TLR9 (Homo sapiens, UniProt Q9NR96); experiment: TLR9 inhibition reporter assay (HEK-Blue cells, SEAP reporter, ODN2006 stimulation); settings: HEK-Blue cells overexpressing human TLR9, SEAP reporter, ODN2006 5 nM
# T1 construct: host or cells: HEK-Blue cells
# T1 sequence (Q9NR96 26-1032): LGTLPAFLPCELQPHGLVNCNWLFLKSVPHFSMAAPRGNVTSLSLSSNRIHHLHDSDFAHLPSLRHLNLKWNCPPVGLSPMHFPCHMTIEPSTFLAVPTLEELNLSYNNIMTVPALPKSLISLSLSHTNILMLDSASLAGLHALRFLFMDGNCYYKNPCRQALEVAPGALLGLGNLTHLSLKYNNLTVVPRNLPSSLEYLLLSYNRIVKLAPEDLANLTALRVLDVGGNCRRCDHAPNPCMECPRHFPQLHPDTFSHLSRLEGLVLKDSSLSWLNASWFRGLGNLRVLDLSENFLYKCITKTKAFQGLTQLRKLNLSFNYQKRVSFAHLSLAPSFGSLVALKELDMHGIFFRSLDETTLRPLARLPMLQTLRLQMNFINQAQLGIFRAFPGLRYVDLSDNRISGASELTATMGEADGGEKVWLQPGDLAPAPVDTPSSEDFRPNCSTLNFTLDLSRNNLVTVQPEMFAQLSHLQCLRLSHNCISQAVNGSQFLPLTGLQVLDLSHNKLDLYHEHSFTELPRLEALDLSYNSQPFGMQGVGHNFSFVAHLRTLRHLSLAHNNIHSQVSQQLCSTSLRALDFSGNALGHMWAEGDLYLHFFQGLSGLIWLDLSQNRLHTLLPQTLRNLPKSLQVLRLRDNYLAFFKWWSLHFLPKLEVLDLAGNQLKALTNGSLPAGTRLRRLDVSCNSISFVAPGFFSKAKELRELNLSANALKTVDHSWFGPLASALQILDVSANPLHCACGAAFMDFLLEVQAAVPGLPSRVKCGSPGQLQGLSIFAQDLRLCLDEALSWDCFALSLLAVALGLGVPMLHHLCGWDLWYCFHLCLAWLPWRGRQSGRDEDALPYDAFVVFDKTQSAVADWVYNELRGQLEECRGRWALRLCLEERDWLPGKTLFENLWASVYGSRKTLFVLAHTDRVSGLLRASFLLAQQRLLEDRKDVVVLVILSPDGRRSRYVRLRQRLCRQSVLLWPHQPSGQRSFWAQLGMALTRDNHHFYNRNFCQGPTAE
# Protocol: TLR7/8/9 Inhibition Reporter Assays
# HEK-Blue™-cells (Invivogen) overexpressing human TLR7, TLR8 or TLR9 receptors were used for screening inhibitors of these receptors using an inducible SEAP (secreted embryonic alkaline phosphatase) reporter gene under the control of the IFN-β minimal promoter fused to five NF-κB and AP-1-binding sites. Briefly, cells are seeded into Greiner 384 well plates (15000 cells per well for TLR7, 20,000 for TLR8 and 25,000 for TLR9) and then treated with test compounds in DMSO to yield a final dose response concentration range of 0.05 nM-50 μM. After a 30 minute compound pre-treatment at room temperature, the cells are then stimulated with a TLR7 ligand (gardiquimod at a final concentration of 7.5 μM), TLR8 ligand (R848 at a final concentration of 15.9 μM) or TLR9 ligand (ODN2006 at a final concentration of 5 nM) to activate NF-κB and AP-1 which induce the production of SEAP. After a 22 hour incubation at 37° C., 5% CO2, SEAP levels are determined with the addition of HEK-Blue™ Detection reagent (Invivogen), a cell culture medium that allows for detection of SEAP, according to manufacturer's specifications. The percent inhibition is determined as the % reduction in the HEK-Blue signal present in wells treated with agonist plus DMSO alone compared to wells treated with a known inhibitor.
# human TLR7 = target: T2, human TLR7 (Homo sapiens, UniProt Q9NYK1); experiment: TLR7 inhibition reporter assay (HEK-Blue cells, SEAP reporter, gardiquimod stimulation); settings: HEK-Blue cells overexpressing human TLR7, SEAP reporter, gardiquimod 7.5 μM; read-out: TLR7 IC50
# T2 construct: host or cells: HEK-Blue cells
# T2 sequence (Q9NYK1 27-1049): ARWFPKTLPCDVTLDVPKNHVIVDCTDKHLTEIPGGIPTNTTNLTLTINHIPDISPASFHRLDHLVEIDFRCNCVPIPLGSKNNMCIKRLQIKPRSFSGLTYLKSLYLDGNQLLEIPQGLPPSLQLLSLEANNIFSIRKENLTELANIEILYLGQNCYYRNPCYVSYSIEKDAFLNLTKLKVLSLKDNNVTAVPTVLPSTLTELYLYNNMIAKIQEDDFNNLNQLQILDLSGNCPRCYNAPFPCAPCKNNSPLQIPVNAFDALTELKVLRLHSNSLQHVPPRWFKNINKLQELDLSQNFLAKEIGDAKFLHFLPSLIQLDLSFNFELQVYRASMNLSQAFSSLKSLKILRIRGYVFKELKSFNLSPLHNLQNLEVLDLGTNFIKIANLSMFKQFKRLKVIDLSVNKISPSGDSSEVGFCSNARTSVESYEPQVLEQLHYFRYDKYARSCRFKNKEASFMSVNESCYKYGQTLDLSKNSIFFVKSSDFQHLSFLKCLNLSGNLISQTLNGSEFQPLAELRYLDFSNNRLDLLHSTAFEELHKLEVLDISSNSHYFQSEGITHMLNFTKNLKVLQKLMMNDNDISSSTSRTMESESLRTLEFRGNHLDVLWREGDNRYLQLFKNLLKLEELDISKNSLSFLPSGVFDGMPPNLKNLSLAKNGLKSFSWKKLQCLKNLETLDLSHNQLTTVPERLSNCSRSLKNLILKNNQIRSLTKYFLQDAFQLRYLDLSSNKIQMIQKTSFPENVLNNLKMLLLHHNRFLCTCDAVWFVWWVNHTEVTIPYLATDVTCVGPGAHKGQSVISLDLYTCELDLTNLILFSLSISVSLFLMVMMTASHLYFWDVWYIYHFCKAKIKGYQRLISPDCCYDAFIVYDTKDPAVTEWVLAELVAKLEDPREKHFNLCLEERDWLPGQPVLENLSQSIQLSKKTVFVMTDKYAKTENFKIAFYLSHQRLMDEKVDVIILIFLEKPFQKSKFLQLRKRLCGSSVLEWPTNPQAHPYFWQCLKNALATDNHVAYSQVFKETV
# In short: (§1)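 HEK-Blue cells overexpressing human TLR7, TLR8 or TLR9 carry a SEAP reporter driven by NF-κB/AP-1 sites. Compounds (0.05 nM–50 μM) were preincubated 30 min at room temperature, then cells were stimulated with gardiquimod 7.5 μM (TLR7), R848 15.9 μM (TLR8) or ODN2006 5 nM (TLR9) for 22 h at 37 °C.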
# human TLR8 = target: T3, human TLR8 (Homo sapiens, UniProt Q9NR97); experiment: TLR8 inhibition reporter assay (HEK-Blue cells, SEAP reporter, R848 stimulation); settings: HEK-Blue cells overexpressing human TLR8, SEAP reporter, R848 15.9 μM; read-out: TLR8 IC50
# T3 construct: host or cells: HEK-Blue cells
# T3 sequence (Q9NR97 27-1041): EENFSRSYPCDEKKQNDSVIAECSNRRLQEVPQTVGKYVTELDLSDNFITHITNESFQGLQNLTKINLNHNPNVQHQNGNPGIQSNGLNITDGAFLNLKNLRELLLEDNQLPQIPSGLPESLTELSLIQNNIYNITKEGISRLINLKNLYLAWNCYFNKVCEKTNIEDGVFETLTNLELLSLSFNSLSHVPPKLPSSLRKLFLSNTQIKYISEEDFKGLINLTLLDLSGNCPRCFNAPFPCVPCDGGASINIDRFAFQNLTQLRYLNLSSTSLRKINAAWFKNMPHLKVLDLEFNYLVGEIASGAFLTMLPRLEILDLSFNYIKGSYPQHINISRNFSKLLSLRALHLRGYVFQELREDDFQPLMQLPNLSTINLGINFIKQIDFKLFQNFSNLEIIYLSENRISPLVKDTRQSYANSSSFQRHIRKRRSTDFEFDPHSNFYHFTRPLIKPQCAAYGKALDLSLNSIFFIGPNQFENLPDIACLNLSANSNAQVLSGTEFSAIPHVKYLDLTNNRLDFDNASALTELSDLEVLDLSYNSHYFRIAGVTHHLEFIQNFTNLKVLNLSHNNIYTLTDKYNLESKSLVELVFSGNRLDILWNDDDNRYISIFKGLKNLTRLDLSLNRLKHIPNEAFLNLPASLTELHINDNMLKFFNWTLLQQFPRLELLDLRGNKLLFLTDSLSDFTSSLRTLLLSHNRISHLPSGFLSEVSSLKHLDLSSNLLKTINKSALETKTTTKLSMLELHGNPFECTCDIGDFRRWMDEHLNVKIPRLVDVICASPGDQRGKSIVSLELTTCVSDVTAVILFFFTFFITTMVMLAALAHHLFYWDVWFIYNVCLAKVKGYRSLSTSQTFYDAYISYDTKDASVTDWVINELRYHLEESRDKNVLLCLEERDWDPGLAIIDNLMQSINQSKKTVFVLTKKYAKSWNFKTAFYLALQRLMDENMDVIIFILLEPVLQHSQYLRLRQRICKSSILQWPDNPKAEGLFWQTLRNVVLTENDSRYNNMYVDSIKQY
# In short: as §1
pIC50 (human TLR9),pIC50 (human TLR7),pIC50 (human TLR8),SMILES
4.60,–,–,"Cc1cc(-c2[nH]c3sc(N4CCN(C5CCC5)C[C@H]4C)nc3c2C(C)C)cn2ncnc12 [Example 362, (R)-2-(4-cyclobutyl-2-methylpiperazin-1-yl)-6-isopropyl-5-(8-methyl-[1,2,4]triazolo[1,5-a]pyridin-6-yl)-4H-pyrrolo[3,2-d]thiazole]"
4.72,5.85,–,"Cc1cc(-c2[nH]c3sc(N4CCNC[C@H]4C)nc3c2C(C)C)cn2ncnc12 [Example 311, (R)-6-isopropyl-5-(8-methyl-[1,2,4]triazolo[1,5-a]pyridin-6-yl)-2-(2-methylpiperazin-1-yl)-4H-pyrrolo[3,2-d]thiazole]"
5.38,–,–,"COc1cc(-c2c(C(C)C)c3nc(C4CCN(CC(F)(F)F)CC4)sc3n2CC(F)(F)F)cn2ncnc12 [Example 9, 6-isopropyl-5-(8-methoxy-[1,2,4]triazolo[1,5-a]pyridin-6-yl)-4-(2,2,2-trifluoroethyl)-2-(1-(2,2,2-trifluoroethyl)piperidin-4-yl)-4H-pyrrolo[3,2-d]thiazole]"
–,7.64,7.35,"Cc1c(-c2[nH]c3sc(N4CCN(C(=O)C5CCS(=O)(=O)CC5)C[C@@H]4C)nc3c2C(C)C)cn2ncnc2c1C [Example 347, (S)-(4-(5-(7,8-dimethyl-[1,2,4]triazolo[1,5-a]pyridin-6-yl)-6-isopropyl-4H-pyrrolo[3,2-d]thiazol-2-yl)-3-methylpiperazin-1-yl)(1,1-dioxidotetrahydro-2H-thiopyran-4-yl)methanone]"
–,6.62,6.39,"Cc1cc(-c2[nH]c3sc(C(=O)N4CCNC(=O)C4)nc3c2C(C)C)cn2ncnc12 [Example 392, 4-(6-isopropyl-5-(8-methyl-[1,2,4]triazolo[1,5-a]pyridin-6-yl)-4H-pyrrolo[3,2-d]thiazole-2-carbonyl)piperazin-2-one]"
–,6.51,7.15,"Cc1c(-c2[nH]c3sc(N4CC5(CN(CCS(C)(=O)=O)C5)C4)nc3c2C(C)C)cn(C)c(=O)c1C [Example 305, 5-(6-isopropyl-2-(6-(2-(methylsulfonyl)ethyl)-2,6-diazaspiro[3.3]heptan-2-yl)-4H-pyrrolo[3,2-d]thiazol-5-yl)-1,3,4-trimethylpyridin-2(1H)-one]"
–,8.03,7.85,"Cc1c(-c2[nH]c3sc(N4CC5(C4)CN(C4COC4)C5)nc3c2C(C)C)cn2ncnc2c1C [Example 302, 5-(7,8-dimethyl-[1,2,4]triazolo[1,5-a]pyridin-6-yl)-6-isopropyl-2-(6-(oxetan-3-yl)-2,6-diazaspiro[3.3]heptan-2-yl)-4H-pyrrolo[3,2-d]thiazole]"
–,7.14,7.53,"Cc1c(-c2[nH]c3sc(C(=O)NCCCN4CCCC4=O)nc3c2C(C)C)cn2ncnc2c1C [Example 371, 5-(7,8-dimethyl-[1,2,4]triazolo[1,5-a]pyridin-6-yl)-6-isopropyl-N-(3-(2-oxopyrrolidin-1-yl)propyl)-4H-pyrrolo[3,2-d]thiazole-2-carboxamide]"
–,8.60,8.28,"Cc1c(-c2[nH]c3sc(C4CCN(C5COC5)CC4)nc3c2C(C)C)cn2ncnc2c1C [Example 43, 5-(7,8-dimethyl-[1,2,4]triazolo[1,5-a]pyridin-6-yl)-6-isopropyl-2-(1-(oxetan-3-yl)piperidin-4-yl)-4H-pyrrolo[3,2-d]thiazole]"
–,6.99,7.27,"COC1CN(C(=O)c2nc3c(C(C)C)c(-c4cc(C)c5ncnn5c4)[nH]c3s2)C1 [Example 396, (6-isopropyl-5-(8-methyl-[1,2,4]triazolo[1,5-a]pyridin-6-yl)-4H-pyrrolo[3,2-d]thiazol-2-yl)(3-methoxyazetidin-1-yl)methanone]"
–,7.72,7.65,"Cc1c(-c2[nH]c3sc(N4CCN(C5COC5)C[C@@H]4C)nc3c2C(C)C)cn2ncnc2c1C [Example 348, (S)-5-(7,8-dimethyl-[1,2,4]triazolo[1,5-a]pyridin-6-yl)-6-isopropyl-2-(2-methyl-4-(oxetan-3-yl)piperazin-1-yl)-4H-pyrrolo[3,2-d]thiazole]"
